Reference: the NIST ThermoML archive (doi:10.1021/je301095j)
± gives the expanded uncertainty stated by the source.

Details: 101.33 kPa, Liquid; for viscosity: Capillary tube (Ostwald / Ubbelohde) method; for mass density: Vibrating tube method

COCCOC [1,2-dimethoxyethane]
viscosity (283.15 K): 0.493 ± 0.004 mPa·s
mass density (283.15 K): 877.72 ± 0.12 kg/m3
viscosity (293.15 K): 0.438 ± 0.003 mPa·s
mass density (293.15 K): 866.71 ± 0.12 kg/m3
viscosity (298.15 K): 0.414 ± 0.003 mPa·s
mass density (298.15 K): 861.2 ± 0.12 kg/m3
viscosity (303.15 K): 0.392 ± 0.003 mPa·s
mass density (303.15 K): 855.7 ± 0.13 kg/m3
viscosity (313.15 K): 0.353 ± 0.003 mPa·s
mass density (313.15 K): 844.69 ± 0.13 kg/m3

CCO [ethanol]
viscosity (283.15 K): 1.459 ± 0.009 mPa·s
mass density (283.15 K): 797.97 ± 0.12 kg/m3
viscosity (293.15 K): 1.209 ± 0.007 mPa·s
mass density (293.15 K): 789.43 ± 0.12 kg/m3
viscosity (298.15 K): 1.098 ± 0.007 mPa·s
mass density (298.15 K): 785.16 ± 0.12 kg/m3
viscosity (303.15 K): 0.998 ± 0.006 mPa·s
mass density (303.15 K): 780.88 ± 0.12 kg/m3
viscosity (313.15 K): 0.831 ± 0.005 mPa·s
mass density (313.15 K): 772.34 ± 0.13 kg/m3

CCCCCCCCO [octan-1-ol]
viscosity (283.15 K): 13.52 ± 0.07 mPa·s
mass density (283.15 K): 832.11 ± 0.13 kg/m3
viscosity (293.15 K): 9.167 ± 0.05 mPa·s
mass density (293.15 K): 825.13 ± 0.13 kg/m3
viscosity (298.15 K): 7.618 ± 0.042 mPa·s
mass density (298.15 K): 821.63 ± 0.14 kg/m3
viscosity (303.15 K): 6.395 ± 0.036 mPa·s
mass density (303.15 K): 818.14 ± 0.14 kg/m3
viscosity (313.15 K): 4.628 ± 0.028 mPa·s
mass density (313.15 K): 811.15 ± 0.14 kg/m3

CCCCCO [pentan-1-ol]
viscosity (283.15 K): 5.463 ± 0.04 mPa·s
mass density (283.15 K): 821.95 ± 0.24 kg/m3
viscosity (293.15 K): 4.037 ± 0.03 mPa·s
mass density (293.15 K): 814.6 ± 0.24 kg/m3
viscosity (298.15 K): 3.49 ± 0.026 mPa·s
mass density (298.15 K): 810.93 ± 0.24 kg/m3
viscosity (303.15 K): 3.032 ± 0.023 mPa·s
mass density (303.15 K): 807.25 ± 0.24 kg/m3
viscosity (313.15 K): 2.319 ± 0.018 mPa·s
mass density (313.15 K): 799.9 ± 0.24 kg/m3
